# Reference: ChEMBL document CHEMBL1201862, “PubChem BioAssay data set” (2004)
# Active and inactive are the calls of the source.
# What was measured:
# [1] = molecular target: ADP-ribosylation factor GTPase-activating protein 1 (Rattus norvegicus, UniProt Q62848); assay: Fluorescence polarization-based biochemical high throughput dose response screening assay to identify inhibitors of ADP-ribosylation factor GTPase activating protein 1 (ARFGAP1).; format: functional
# [2] = cytotoxicity toward NIH3T3 fibroblasts, dose response, counter-screen, cell-based, ATP luminescence, mouse fibroblasts (AID 2010); format: functional;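 also: cells exposed to compound for about 90 hours before reading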
# [3] = inhibitors of intracellular T. cruzi replication, confirmation, NIH3T3 host cells, beta-gal luminescence (AID 2044); format: functional, cell-based;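 also: intracellular parasites grown in NIH/3T3 mouse fibroblasts as host cells; luminescent beta-galactosidase reporter signal from transgenic T. cruzi replicating inside host cells; inhibitors lower the luminescence signal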
# [4] = molecular target: T1, Methionyl-tRNA synthetase, putative (Trypanosoma brucei brucei, UniProt Q38C91); format: functional, Trypanosoma brucei brucei strain 927/4 GUTat10.1
# [5] = molecular target: T1, Methionyl-tRNA synthetase, putative; format: functional, Trypanosoma brucei brucei strain 927/4 GUTat10.1; remark: listed apart in the source
# [6] = growth suppression of beta-catenin-knockout colon cells, dose response, cell-based, HCT116, human colon tumor (AID 1045); format: functional;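 also: HCT116 colon tumor cells with beta catenin knocked out; cells exposed to compound for 60 hours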
# Cytochrome P450 1A2 = molecular target: T2, Cytochrome P450 1A2 (Homo sapiens, UniProt P05177);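 also: PubChem cytochrome P450 panel assay, CYP1A2 panel member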
# T2 sequence (P05177 whole entry): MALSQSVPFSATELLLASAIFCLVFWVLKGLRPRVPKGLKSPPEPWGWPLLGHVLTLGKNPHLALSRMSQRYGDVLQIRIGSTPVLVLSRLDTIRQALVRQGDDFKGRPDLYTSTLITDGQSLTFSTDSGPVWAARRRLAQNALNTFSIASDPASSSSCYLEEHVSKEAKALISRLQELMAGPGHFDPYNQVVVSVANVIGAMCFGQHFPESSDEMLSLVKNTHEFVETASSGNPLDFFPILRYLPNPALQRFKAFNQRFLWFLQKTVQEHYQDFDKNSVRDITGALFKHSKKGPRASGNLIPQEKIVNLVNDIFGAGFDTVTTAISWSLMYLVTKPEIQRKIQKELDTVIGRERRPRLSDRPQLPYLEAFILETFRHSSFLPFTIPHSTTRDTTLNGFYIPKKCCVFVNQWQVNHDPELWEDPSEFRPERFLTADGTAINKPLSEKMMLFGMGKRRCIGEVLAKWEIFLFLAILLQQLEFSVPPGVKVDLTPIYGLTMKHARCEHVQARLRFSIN
# [7] = growth suppression of PTEN-null colon cells, dose response, cell-based, HCT116 PTEN knockout (AID 1047); format: functional;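 also: HCT116 colon tumor cells with PTEN knocked out; cells exposed to compound for 60 hours before readout; potency for loss of cell viability measured by luminescence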
# Streptokinase A = molecular target: T3, Streptokinase A (Streptococcus pyogenes serotype M1, UniProt P10520); assay: S. pyogenes streptokinase expression inhibitors, potency, dose response, plasminogen activation absorbance, OD405 (AID 1914); format: functional, Streptococcus pyogenes M1 GAS;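 also: secreted streptokinase activity via plasminogen activation per viability signal from cell pellet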
# T3 sequence (P10520 whole entry): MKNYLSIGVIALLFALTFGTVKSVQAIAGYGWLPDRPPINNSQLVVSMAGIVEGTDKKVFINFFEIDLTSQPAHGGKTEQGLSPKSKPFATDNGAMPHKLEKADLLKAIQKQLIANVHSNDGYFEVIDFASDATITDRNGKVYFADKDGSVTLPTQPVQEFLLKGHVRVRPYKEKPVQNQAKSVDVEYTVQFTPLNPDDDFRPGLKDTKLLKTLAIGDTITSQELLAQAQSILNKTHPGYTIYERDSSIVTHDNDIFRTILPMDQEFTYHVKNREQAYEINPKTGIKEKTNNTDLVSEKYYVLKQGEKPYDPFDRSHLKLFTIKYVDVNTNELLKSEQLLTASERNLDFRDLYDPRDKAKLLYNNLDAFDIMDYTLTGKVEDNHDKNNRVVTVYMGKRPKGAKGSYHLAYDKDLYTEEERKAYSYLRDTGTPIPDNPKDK
# [8] = molecular target: T4, Calpain-2 catalytic subunit (Sus scrofa, UniProt P43367); assay: pig calpain II inhibitor potency, dose response, biochemical, fluorogenic peptide substrate (AID 1420); format: functional
# T4 sequence (P43367 whole entry): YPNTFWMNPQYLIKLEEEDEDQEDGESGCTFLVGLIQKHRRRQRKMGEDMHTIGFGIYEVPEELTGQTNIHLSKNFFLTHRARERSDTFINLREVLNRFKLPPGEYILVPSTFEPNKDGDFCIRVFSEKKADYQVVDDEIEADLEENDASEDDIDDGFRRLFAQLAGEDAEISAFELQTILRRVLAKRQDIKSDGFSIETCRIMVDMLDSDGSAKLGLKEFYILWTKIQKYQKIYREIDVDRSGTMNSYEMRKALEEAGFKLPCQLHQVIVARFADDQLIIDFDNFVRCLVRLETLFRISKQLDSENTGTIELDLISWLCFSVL
# [9] = Counterscreen for inhibitors of Trypanosoma brucei methionyl tRNA synthetase (MetRS): Luminescence-based cell-based high throughput dose response assay to identify compounds that are cytotoxic to Jurkat human T lymphocyte cells.; format: functional
# [10] = system: Streptococcus sp. 'group A'; assay: growth inhibition of control SK(-) GAS strain, dose response, counter-screen for streptokinase expression inhibitor project, luminescence, kanamycin, BacTiterGlo, confirmation (AID 1900); format: functional, organism-based
# Streptococcus = assay: Group A Streptococcus viability loss, dose response, counter-screen for streptokinase expression inhibitor project, luminescence, BacTiterGlo (AID 1915); format: functional, organism-based;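 also: potency for reduction of bacterial viability or growth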
# Caspase-3 = molecular target: T5, Caspase-3 (Homo sapiens, UniProt P42574); assay: Dose-response confirmation of uHTS inhibitor hits of Sentrin-Specific Protease 8 in a Caspase-3 Fluorescence assay.; format: functional
# T5 sequence (P42574 whole entry): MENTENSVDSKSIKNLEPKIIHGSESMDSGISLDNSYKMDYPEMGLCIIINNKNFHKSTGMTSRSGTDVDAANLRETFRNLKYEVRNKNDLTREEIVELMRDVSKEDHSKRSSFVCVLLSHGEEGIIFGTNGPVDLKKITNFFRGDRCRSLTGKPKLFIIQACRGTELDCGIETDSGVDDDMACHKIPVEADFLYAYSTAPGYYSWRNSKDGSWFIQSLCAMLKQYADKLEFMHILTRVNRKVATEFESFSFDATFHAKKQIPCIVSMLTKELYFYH
# [11] = molecular target: T6, Sentrin-specific protease 8 (Homo sapiens, UniProt Q96LD8); format: functional
# T6 sequence (Q96LD8 whole entry): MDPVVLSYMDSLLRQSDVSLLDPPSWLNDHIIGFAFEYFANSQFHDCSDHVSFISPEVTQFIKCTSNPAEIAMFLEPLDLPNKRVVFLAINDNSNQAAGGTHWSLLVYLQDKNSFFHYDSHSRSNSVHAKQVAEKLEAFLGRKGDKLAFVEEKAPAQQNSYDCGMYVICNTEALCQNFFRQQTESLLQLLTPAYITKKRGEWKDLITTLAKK
# [12] = molecular target: T6, Sentrin-specific protease 8; format: functional; remark: listed apart in the source
# T1 sequence (Q38C91 whole entry): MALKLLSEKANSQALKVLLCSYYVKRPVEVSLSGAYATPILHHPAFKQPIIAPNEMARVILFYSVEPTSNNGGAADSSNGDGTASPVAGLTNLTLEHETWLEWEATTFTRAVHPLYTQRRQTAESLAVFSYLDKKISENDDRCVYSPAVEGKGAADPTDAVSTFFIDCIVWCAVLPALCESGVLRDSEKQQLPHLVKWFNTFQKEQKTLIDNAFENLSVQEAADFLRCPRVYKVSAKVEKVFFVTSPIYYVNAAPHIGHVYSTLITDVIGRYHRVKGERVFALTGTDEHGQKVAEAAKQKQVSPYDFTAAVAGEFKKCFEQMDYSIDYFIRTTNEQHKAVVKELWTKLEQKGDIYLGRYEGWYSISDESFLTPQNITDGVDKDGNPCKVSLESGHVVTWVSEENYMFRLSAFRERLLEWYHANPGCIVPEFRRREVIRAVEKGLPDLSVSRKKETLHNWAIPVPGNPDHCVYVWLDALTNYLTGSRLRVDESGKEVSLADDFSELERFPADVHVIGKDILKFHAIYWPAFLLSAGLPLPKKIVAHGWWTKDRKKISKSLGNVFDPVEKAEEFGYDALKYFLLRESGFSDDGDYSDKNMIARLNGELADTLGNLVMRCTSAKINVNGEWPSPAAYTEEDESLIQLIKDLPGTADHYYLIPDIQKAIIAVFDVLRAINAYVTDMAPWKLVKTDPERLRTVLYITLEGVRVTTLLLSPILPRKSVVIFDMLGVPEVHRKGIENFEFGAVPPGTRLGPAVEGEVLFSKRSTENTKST
# Sequence of ADP-ribosylation factor GTPase-activating protein 1 (Q62848 whole entry): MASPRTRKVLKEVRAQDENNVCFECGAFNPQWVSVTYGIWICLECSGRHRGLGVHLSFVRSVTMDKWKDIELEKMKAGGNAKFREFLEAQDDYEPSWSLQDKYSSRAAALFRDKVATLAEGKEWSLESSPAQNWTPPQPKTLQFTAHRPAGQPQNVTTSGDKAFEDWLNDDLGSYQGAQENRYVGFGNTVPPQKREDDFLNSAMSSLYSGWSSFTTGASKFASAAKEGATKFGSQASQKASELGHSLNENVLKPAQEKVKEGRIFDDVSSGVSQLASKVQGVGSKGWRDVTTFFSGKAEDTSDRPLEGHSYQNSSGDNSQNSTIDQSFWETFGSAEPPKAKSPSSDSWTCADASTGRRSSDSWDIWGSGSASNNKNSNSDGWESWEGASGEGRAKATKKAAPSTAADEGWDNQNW
smiles,measurement,setting,value
Cc1ccc2nc(SCC(=O)Nc3cccc(F)c3)nc(=O)n2c1,IC50,[1],44.9 µM (inactive)
CCN1C(=O)C(CC(=O)Nc2ccc(Br)cc2)N(CCCc2ccccc2)C1=S (stereo unspecified),EC50,[2],> 60 µM (not active)
same,EC50,[3],2.31 µM (active)
same,IC50,[4],5.93 µM (active)
same,IC50,[5],6.6 µM (active)
same,EC50,[6],16.1 µM (active)
same,AC50,Cytochrome P450 1A2,14.1 µM (inconclusive)
same,EC50,[7],15.3 µM (active)
same,EC50,Streptokinase A,1.98 µM (active)
same,IC50,[8],5.99 µM (not active)
same,IC50,[9],41.5 µM (inactive)
same,EC50,[10],3.15 µM (active)
same,EC50,Streptococcus,6.98 µM (active)
COc1ccc(Cc2nnc(SCC(=O)N3CCc4ccccc4C3)o2)cc1,IC50,Caspase-3,48.1 µM (active)
same,IC50,[11],72.5 µM (inactive)
same,IC50,[12],10.3 µM (active)
